Measured values reported in BindingDB's records for doi:10.1016/s0960-894x(99)00064-5 (Institut De Chimie Organique De L'Universit&#233, 1999).

What was measured:
[1] = target: Beta-galactosidase (Canavalia ensiformis); experiment: Inhibition constant against beta-galactosidase enzyme of jack bean was reported
[2] = target: Beta-galactosidase (Canavalia ensiformis); experiment: as above; remark: listed apart in the source

Question: Which Ki [1] does the source give for `CC(=O)N[C@H]1C(O)O[C@H](C(O)CO)[C@@H]1C[C@H]1O[C@H](CO)[C@@H](O)[C@H](O)[C@@H]1O` (some centres not stated) [N-[2,5-Dihydroxy-6-hydroxymethyl-4-(3,4,5-trihydroxy-6-hydroxymethyl-tetrahydro-pyran-2-ylmethyl)-tetrahydro-pyran-3-yl]-acetamide and N-[5-(1,2-Dihydroxy-ethyl)-2-hydroxy-4-(3,4,5-trihydroxy-6-hydroxymethyl-tetrahydro-pyran-2-ylmethyl)-tetrahydro-furan-3-yl]-acetamide] here?
Answer: 7.5 µM

Question: And the IC50 [2]?
Answer: 9.4 µM
